According to patent US20250282723A1, “AMYLOID TARGETING AGENTS AND METHODS OF USING THE SAME” (The Regents of the University of California, priority 2021, published 2025):
“And” between values parts separate entries of the source, which are not always exact repeats. Equal entries are not always repeated.

Key:
[1] = target: T1, aggregated Aβ (1-42) peptides (Homo sapiens, UniProt P05067); test: Estimation of binding constant (KD) to aggregated Aβ (1-42) peptides; conditions: aggregated Aβ(1-42) 5 μM, increasing concentration of probe, 5% DMSO in nanopure water
T1 construct: Synthetic Aβ (1-42) peptide was purchased from Biopeptide, Co LLC; purchased Biopeptide, Co LLC (San Diego, California); host or cells: chemical synthesis
Protocol: (§1) Preparation of aggregated Aβ (1-42) peptides. Synthetic Aβ (1-42) peptide was purchased from Biopeptide, Co LLC (San Diego, California). Aggregated Aβ (1-42) was prepared as previously described.^26 Briefly, Aβ (1-42) was dissolved in 100% 1,1,1,3,3,3,-hexafluoro-2-propanol (HFIP) to a concentration of 1 mM and put on a shaker at room temperature (RT) for 24 hours. The solution was then diluted in cold nanopure water (2:1 H2O: HFIP). Aliquoted fractions were lyophilized for 3 days before dissolving in nanopure water to a concentration of 100 μM. Aggregated Aβ solutions were incubated and shaken at 37° C. for 3 days before use. The formation of soluble aggregates (67% fibrils as a mixture with 13% oligomers and 20% monomer) was confirmed using a standard thioflavin T (ThT) assay and by Sodium Dodecyl Sulphate-Polyacrylamide Gel Electrophoresis (SDS-PAGE) gel analysis (FIG. 11 and FIG. 12).
Estimation of Binding Constant (KD) to aggregated Aβ (1-42) peptides. Aggregated Aβ(1-42) at a final concentration of 5 μM (based on the molecular weight of monomer) was mixed with increasing concentration of each probe in 5% DMSO in nanopure water. KD's were determined as previously described.^21
(§2) Synthetic Aβ (1-42) peptide was purchased from Biopeptide, Co LLC (San Diego, California). Aggregated Aβ (1-42) was prepared as previously described.^32 Briefly, monomeric Aβ (1-42) was dissolved in 100% 1,1,1,3,3,3,-hexafluoro-2-propanol (HFIP) to a final concentration of 1 mM and dissolved on a shaker at RT for 24 hours. This solution was then diluted with cold nanopure water (2:1 H2O:HFIP) and aliquoted into fractions. These samples were then lyophilized for 3 days before dissolving in nanopure water to a final concentration of 100 μM. AD solutions were aggregated by incubating and shaking at 37° C. for 3 days before use. The formation of soluble aggregates was confirmed using a standard Thioflavin T (ThT) assay and by SDS-PAGE gel analysis.^1
(§3) Aggregated Aβ(1-42) or αS at a final concentration of 5 μM (based on the molecular weight of the monomer) was mixed with an increasing concentration of each probe in 5% DMSO in nanopure water. Kd's were calculated as previously described.^34 The measurements for each probe were repeated in technical triplicates and the averages are shown with standard deviations. Kd's for probes 1-3 with aggregated Aβ(1-42) have been reported previously.^31

[2] = target: T2, aggregated αS (Homo sapiens, UniProt P37840); test: Estimation of binding constant (Kd) to aggregated αS; conditions: probes of FIG. 14; aggregated αS 5 μM, increasing concentration of probe, 5% DMSO in nanopure water
T2 construct: made in house; host or cells: E. coli BL21 (plasmid pET5α aSynWT)
Protocol: Expression and purification of recombinant α-synuclein was followed as reported previously.^32 Briefly, α-synuclein was purified from BL21 E. coli as described: A starter culture of transformed bacteria (pET5α aSynWT) (LB broth with ampicillin [final concentration: 100 μg/mL]) was incubated overnight. Following incubation, 25 mL of the started culture was added to a 500 mL mixture of LB broth and ampicillin. Protein expression was induced by addition of IPTG [0.119 g/500 mL] when an OD600 between 0.5-0.8 was achieved. After 4 h, flasks were centrifuged (5,000×g for 20 min) and the supernatant was removed. The pellets were then re-suspended in 20 mM Tris, 25 mM NaCl, 1 mM EDTA, pH 8.0, transferred into a flask, boiled for 1-2 minutes in a microwave, and boiled in a water bath (90° C.) for 30 minutes. Samples were then centrifuged (18,000×g for 30 min) and the supernatant was collected and filtered through a 0.2 μm filter. α-synuclein protein was further purified using 2×5 ml HiTrapQ HP anion exchange columns (GE, #17-1153-01) followed by Size Exclusion Column (Superdex 200, #28-9893-35). Pure α-synuclein determined by Coomassie and western blot were lyophilized and stored at −80° C. until use.
Aggregation of purified α-synuclein was followed as reported previously.^33 The lyophilized powder was dissolved to a final concentration of 100 μM in sodium phosphate buffer (50 mM, pH 7.4) with 0.1 mM EDTA and 0.02% sodium azide (w/v) and was aggregated at 37° C. with shaking at 500 rpm for 3 weeks. Fibrillization was confirmed by SDS-PAGE gel and standard ThT assay.
as §3

[3] = target: T1, aggregated Aβ (1-42) peptides; test: Fluorescence excitation/emission and fluorescence enhancement of probes bound versus unbound to aggregated Aβ (1-42) peptides; type: binding; conditions: probe 4 μM; for Em (λmax) (with Aβ) / Ex (λmax) (with Aβ): aggregated Aβ (1-42) 5 μM; for Em (λmax) (with Aβ) / Ex (λmax) (with Aβ) / Fold Increase with Aβ / Emmax (with Aβ): 5% DMSO in nanopure water; for Fold Increase with Aβ: fluorescence intensity with aggregated Aβ (1-42) 5 μM vs probe alone, at λmax of the amyloid-bound state; for Emmax (with Aβ) / FI with Aβ: probes of FIG. 14, aggregated Aβ(1-42) 5 μM; for FI with Aβ: fold increase of fluorescence, bound vs unbound
Protocol: as §1
Estimation of fluorescence enhancement of probes when bound versus unbound to aggregated Aβ (1-42) peptides. Aggregated Aβ (1-42) at a final concentration of 5 μM (based on the molecular weight of monomer) was mixed with each fluorescent probe at a final concentration of 4 μM in 5% DMSO in nanopure water. The solution (80 μL) was transferred to a black opaque 96 well plate and the fluorescence was read using a microplate reader. For all probes, the relative fluorescence enhancement of the bound versus unbound state was estimated by comparing the intensity at λmax of the amyloid-bound state.
as §2
Aggregated αS or Aβ(1-42) at a final concentration of 5 μM (based on the molecular weight of monomer) was mixed with each fluorescent probe at a final concentration of 4 μM in 5% DMSO in nanopure water. The solution (80 μL total volume) was transferred to a black opaque 96 well plate and the fluorescence excitation and emission were read using a microplate reader. For emission fluorescence enhancement, the relative fluorescence enhancement of the bound versus unbound state was estimated by comparing the fluorescence intensity at λmax of the amyloid-bound state.

T1 sequence (P05067 672-713): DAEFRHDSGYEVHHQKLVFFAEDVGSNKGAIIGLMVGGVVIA

| SMILES | Kd [1] [µM] | Kd [2] [µM] | Em (λmax) (with Aβ) [3] [nm] | Ex (λmax) (with Aβ) [3] [nm] | Fold Increase with Aβ [3] | Emmax (with Aβ) [3] [nm] | FI with Aβ [3] | Fold Increase with Aβ ([3]; listed as ARCAM (1)) [fold] |
| --- | --- | --- | --- | --- | --- | --- | --- | --- |
| COCCOCCOCCNC(=O)/C(C#N)=C/c1ccc2cc(N3CCCCC3C)ccc2c1 (racemic) [Compound 4, (E)-2-cyano-N-(2-(2-(2-methoxyethoxy)ethoxy)ethyl)-3-(6-(2-methylpiperidin-1-yl)naphthalen-2-yl)acrylamide] | 4.4 ± 2.3 | 4.5 ± 1.6 | 559 ± 8 | 439 ± 3 | 1.9 fold and 1.9 ± 0.5 fold | 559 | 1.9 ± 0.5 | – |
| COCCOCCOCCNC(=O)C(C#N)=Cc1ccc2cc(N3CCCCC3)ccc2c1 (mixture of isomers) [Compound 1] | 6.3 ± 0.7 | 3.9 ± 3.9 | 560 ± 10 | 421 ± 4 | 2.1 ± 0.7 fold | 560 | 2.1 ± 0.7 | 2.1 |
| CCC1CCCCN1c1ccc2cc(/C=C(\C#N)C(=O)NCCOCCOCCOC)ccc2c1 (racemic) [Compound 5, (E)-2-cyano-3-(6-(2-ethylpiperidin-1-yl)naphthalen-2-yl)-N-(2-(2-(2-methoxyethoxy)ethoxy)ethyl)acrylamide] | 3.2 ± 0.6 | 5.8 ± 1.8 | 567 ± 5 | 443 ± 5 | 1.2 fold and 1.2 ± 0.1 fold | 567 | 1.2 ± 0.1 | – |
